Test [1] can be described thus: Chemical chaperone activity assessed as suppression of alpha-lactalbumin-bovine serum albumin aggregation at 3 mM by turbidity assay. It is filed as functional.
The target of test [2] is Histone deacetylase (Homo sapiens) (UniProt Q13547+O15379+Q9UBN7+Q92769+Q9UQL6+Q8WUI4+Q9BY41+Q96DB2+P56524+Q9UKV0+Q969S8). The settings on record: SH-SY5Y, at 3 mM.
Description: Inhibition of HDAC in human SH-SY5Y cells under ER stress assessed as acetylated H3 levels at 3 mM after 48 hrs by Western blot analysis in presence of tunicamycin

Active and inactive are the calls of the source. The calls are words filed in the database; no cut-off is given here.

For the compound `O=C(O)CCCc1ccccc1`, in test [1], the result was Active. Further, the inhibition result in test [2] was “Active”.
As for `O=C(O)CCCc1ccc([N+](=O)[O-])cc1`, the inhibition result in test [2] is “Active”.
Take `COc1ccc(CCCC(=O)O)cc1`: the inhibition result in test [2] was “Active”.
